Measurements from patent US8569509B2, “Thiazole-4-carboxylic acid esters and thioesters as plant protection agents” (priority 2008, dated 2013).

Assay: log P determination (HPLC, calibration with unbranched alkan-2-ones)
Assay type: physicochemical
Details: * LC-MS determination in the acidic range at pH 2.7, 0.1% aqueous formic acid and acetonitrile, linear gradient 10% to 95% acetonitrile
Description: The calibration is carried out using unbranched alkan-2-ones (having 3 to 16 carbon atoms) with known log P values (determination of the log P values by the retention times using linear interpolation between two successive alkanones). The lambda-maX values were determined in the maxima of the chromatographic signals using the UV spectra from 200 nm to 400 nm.

| SMILES | log p |
| --- | --- |
| Cc1cc(C)n(C(C)(C)C(=O)N2CCC(c3nc(C(=O)OCc4cccs4)cs3)CC2)n1 [compound 443] | 3.06* |
| Cc1cc(C)n(C(C)(C)C(=O)N2CCC(c3nc(C(=O)Oc4cccc5ccccc45)cs3)CC2)n1 [compound 377] | 3.82* |
| Cc1cc(C)n(C(C)(C)C(=O)N2CCC(c3nc(C(=O)OC4CCCc5ccccc54)cs3)CC2)n1 (stereo not shown) [compound 368] | 4.04* |
| Cc1cc(C)n(C(C)(C)C(=O)N2CCC(c3nc(C(=O)OC4CCc5ccccc54)cs3)CC2)n1 (stereo not shown) [compound 376] | 3.68* |
| Cc1c(Cl)c(C(F)(F)F)nn1C(C)C(=O)N1CCC(c2nc(C(=O)OC3CCCCC3)cs2)CC1 (racemic) [compound 769] | 4.58* |
| Cc1cc(C)n(C(C)(C)C(=O)N2CCC(c3nc(C(=O)Oc4ccccc4)cs3)CC2)n1 [compound 412] | 3.06* |
| Cc1cc(C)n(C(C)(C)C(=O)N2CCC(c3nc(C(=O)Oc4ccc(F)cc4)cs3)CC2)n1 [compound 413] | 3.21* |
| Cc1cc(C)n(C(C)(C)C(=O)N2CCC(c3nc(C(=O)OCc4ccccc4)cs3)CC2)n1 [compound 379] | 3.19* |

Same assay, conditions: * LC-MS determination in the acidic range at pH 2.7, 0.1% aqueous formic acid and acetonitrile, linear gradient 10% to 95% acetonitrile, reversed-phase C 18

| SMILES | log p |
| --- | --- |
| O=C(OCCc1ccc(F)cc1)c1csc(C2CCN(C(=O)Cn3ccc(C(F)(F)F)n3)CC2)n1 [compound 126] | 3.27* |
| O=C(Oc1ccccc1)c1csc(C2CCN(C(=O)Cn3ccc(C(F)(F)F)n3)CC2)n1 [compound 127] | 2.85* |
| Cc1c(Cl)c(C(F)(F)F)nn1CC(=O)N1CCC(c2nc(C(=O)OCc3ccncc3)cs2)CC1 [compound 217] | 1.82* |
| Cc1c(Cl)c(C(F)(F)F)nn1CC(=O)N1CCC(c2nc(C(=O)OCc3ccc(F)cc3)cs2)CC1 [compound 155] | 3.73* |
| O=C(Oc1ccc(F)cc1)c1csc(C2CCN(C(=O)Cn3ccc(C(F)(F)F)n3)CC2)n1 [compound 128] | 2.89* |

Same assay, conditions: * LC-MS determination in the acidic range at pH 2.7, mobile phases 0.1% aqueous formic acid and acetonitrile (0.1% formic acid), linear gradient 10% to 95% acetonitrile; reversed-phase C 18 HPLC

| SMILES | log p |
| --- | --- |
| Cc1cc(C(F)(F)F)nn1CC(=O)N1CCC(c2nc(C(=O)Oc3cccc4c3CCCC4)cs2)CC1 [compound 792] | 4.30* |
| CCc1cc(C(F)(F)F)n(CC(=O)N2CCC(c3nc(C(=O)OCC4CCCCC4)cs3)CC2)n1 [compound 852] | 3.99* |
| CC(C(=O)N1CCC(c2nc(C(=O)OC3CCCCC3)cs2)CC1)n1ccc(C(F)(F)F)n1 (stereo not shown) [compound 774] | 3.88* |
| Cc1cc(C(F)(F)F)nn1CC(=O)N1CCC(c2nc(C(=O)O[C@@H]3CCCc4ccccc43)cs2)CC1 [compound 795] | 4.06* |
| Cc1cc(C(F)(F)F)nn1CC(=O)N1CCC(c2nc(C(=O)OC3Cc4ccccc4C3)cs2)CC1 [compound 791] | 3.67* |
| Cc1cc(C(F)(F)F)nn1CC(=O)N1CCC(c2nc(C(=O)OCc3cccc4ccccc34)cs2)CC1 [compound 783] | 3.90* |
| Cc1cc(C(F)(F)F)nn1CC(=O)N1CCC(c2nc(C(=O)OCc3ccc4ccccc4c3)cs2)CC1 [compound 784] | 3.92* |
| Cc1cc(C(F)(F)F)nn1CC(=O)N1CCC(c2nc(C(=O)OC3CCC4(CC3)OCCO4)cs2)CC1 [compound 830] | 2.90* |
| Cc1cc(C(F)(F)F)nn1CC(=O)N1CCC(c2nc(C(=O)Oc3ccc4ncccc4c3)cs2)CC1 [compound 793] | 2.37* |
| Cc1cc(C(F)(F)F)nn1CC(=O)N1CCC(c2nc(C(=O)OC3CCCCCC3)cs2)CC1 [compound 788] | 4.09* |
| CC(C)(C)c1cc(C(F)(F)F)nn1CC(=O)N1CCC(c2nc(C(=O)OCC3CCCCC3)cs2)CC1 [compound 848] | 4.51* |
| C=CC(CCC)OC(=O)c1csc(C2CCN(C(=O)C(C)(C)n3nc(C)cc3C)CC2)n1 (stereo not shown) [compound 801] | 3.78* |
| C#CC1(OC(=O)c2csc(C3CCN(C(=O)C(C)(C)n4nc(C)cc4C)CC3)n2)CCCCC1 [compound 804] | 3.73* |
| CC(C)(C)c1cc(C(F)(F)C(F)(F)F)nn1CC(=O)N1CCC(c2nc(C(=O)OCC3CCCCC3)cs2)CC1 [compound 850] | 4.94* |
| Cc1cc(C(F)(F)F)nn1CC(=O)N1CCC(c2nc(C(=O)Oc3cccc4c3CCCC4)cs2)CC1 [compound 790] | 4.21* |
| COc1ccc(COC(=O)c2csc(C3CCN(C(=O)Cn4nc(C(F)(F)F)cc4C)CC3)n2)c(OC)c1 [compound 834] | 3.33* |
| Cc1cc(C)n(C(C)(C)C(=O)N2CCC(c3nc(C(=O)OC4CC(C)CCC4C(C)C)cs3)CC2)n1 (stereo not shown) [compound 797] | 5.51* |
| Cc1cc(C(F)(F)F)nn1CC(=O)N1CCC(c2nc(C(=O)OC3CC(C)CCC3C(C)C)cs2)CC1 (stereo not shown) [compound 829] | 5.22* |
| Cc1cc(C(F)(F)F)nn1CC(=O)N1CCC(c2nc(C(=O)OC3CCCCC3C)cs2)CC1 (stereo not shown) [compound 832] | 4.12* |
| Cc1cc(C(F)(F)F)nn1CC(=O)N1CCC(c2nc(C(=O)Oc3ccc4cccnc4c3)cs2)CC1 [compound 781] | 2.42* |
| Cc1cc(C(F)(F)F)nn1CC(=O)N1CCC(c2nc(C(=O)Oc3ccc(Oc4ccccc4)cc3)cs2)CC1 [compound 825] | 4.14* |
| CCCCCCCCOC(=O)c1csc(C2CCN(C(=O)Cn3nc(C(F)(F)F)cc3C)CC2)n1 [compound 833] | 5.02* |
| Cc1cc(C(F)(F)F)nn1CC(=O)N1CCC(c2nc(C(=O)OC(c3ccccc3)c3ccccc3)cs2)CC1 [compound 808] | 4.17* |
| Cc1cc(C(F)(F)F)nn1CC(=O)N1CCC(c2nc(C(=O)Oc3cccc4ncccc34)cs2)CC1 [compound 807] | 2.59* |
| C#CC1(OC(=O)c2csc(C3CCN(C(=O)Cn4nc(C(F)(F)F)cc4C)CC3)n2)CCCCC1 [compound 826] | 3.76* |
| C#CC1(OC(=O)c2csc(C3CCN(C(=O)C(C)(C)n4nc(C)cc4C)CC3)n2)CCCC1 [compound 798] | 3.28* |

Same assay, conditions: * LC-MS determination in the acidic range, pH 2.7, 0.1% aqueous formic acid and acetonitrile, linear gradient 10% to 95% acetonitrile

| SMILES | log p |
| --- | --- |
| C[Si](C)(C)COC(=O)c1csc(C2CCN(C(=O)Cn3ccc(C(F)(F)F)n3)CC2)n1 [compound 84] | 3.53* |
| O=C(OCc1ccc(F)cc1)c1csc(C2CCN(C(=O)Cn3ccc(C(F)(F)F)n3)CC2)n1 [compound 95] | 3.04* |
| Cc1ccccc1COC(=O)c1csc(C2CCN(C(=O)Cn3nc(C(F)(F)F)cc3C)CC2)n1 [compound 31] | 3.62* |
| Cc1ccc(COC(=O)c2csc(C3CCN(C(=O)Cn4nc(C(F)(F)F)cc4C)CC3)n2)cc1 [compound 18] | 4.21* |
| Cc1cc(C(F)(F)F)nn1CC(=O)N1CCC(c2nc(C(=O)Oc3ccc4ccccc4c3)cs2)CC1 [compound 10] | 3.84* |
| O=C(OC1CCCCC1)c1csc(C2CCN(C(=O)Cn3ccc(C(F)(F)F)n3)CC2)n1 [compound 85] | 3.42* |
| Cc1cc(C(F)(F)F)nn1CC(=O)N1CCC(c2nc(C(=O)OCCc3ccc(F)cc3)cs2)CC1 [compound 43] | 3.55* |
| Cc1cc(C(F)(F)F)nn1CC(=O)N1CCC(c2nc(C(=O)OCc3ccc(Cl)cc3)cs2)CC1 [compound 17] | 3.73* |
| Cc1cc(C(F)(F)F)nn1CC(=O)N1CCC(c2nc(C(=O)OCc3cccc(Cl)c3)cs2)CC1 [compound 24] | 3.72* |
| CCC(OC(=O)c1csc(C2CCN(C(=O)Cn3nc(C(F)(F)F)cc3C)CC2)n1)c1ccc(F)cc1 (stereo not shown) [compound 42] | 3.89* |
| Cc1cc(C(F)(F)F)nn1CC(=O)N1CCC(c2nc(C(=O)OCc3cc(Cl)cc(Cl)c3)cs2)CC1 [compound 21] | 4.24* |
| Cc1cc(C(F)(F)F)nn1CC(=O)N1CCC(c2nc(C(=O)OCc3cccs3)cs2)CC1 [compound 81] | 3.22* |

Same assay, conditions: pH 2.7; read-out: log P (pH 2.7)

| SMILES | chromatographic logP |
| --- | --- |
| CCOC(=O)Cn1nc(C(F)(F)F)cc1C(C)(C)C [XVI-2, Ethyl [5-tert-butyl-3-(trifluoromethyl)-1H-pyrazol-1-yl]acetate] | 3.48 |
| CCOC(=O)Cn1nc(C(F)(F)F)c(Cl)c1C [XVI-6, Ethyl [4-chloro-5-methyl-3-(trifluoromethyl)-1H-pyrazol-1-yl]acetate] | 3.11 |
| CCOC(=O)Cn1nc(C(C)(C)C)cc1C(F)(F)C(F)(F)F [XVI-3, Ethyl [3-tert-butyl-5-(pentafluoroethyl)-1H-pyrazol-1-yl]acetate] | 4.45 |
| CCOC(=O)c1csc(C2CCCNC2)n1 (stereo not shown) [VI-2, 3-[4-(Ethoxycarbonyl)-1,3-thiazol-2-yl]piperidinium chloride] | 0.54 |
| Cc1cc(C(F)(F)F)nn1CC(=O)N1CCC(c2nc(C(=O)OCc3ccccc3Br)cs2)CC1 [compound 820, 2-Bromobenzyl 2-(1-{[5-methyl-3-(trifluoromethyl)-1H-pyrazol-1-yl]acetyl}piperidin-4-yl)-1,3-thiazole-4-carboxylate] | 3.8 |
| CCOC(=O)Cn1nc(C(C)C)cc1C(F)(F)F [XVI-5, Ethyl [3-isopropyl-5-(trifluoromethyl)-1H-pyrazol-1-yl]acetate] | 3.22 |
| CC(C)c1cc(C(F)(F)F)n(CC(=O)O)n1 [V-5, [3-Isopropyl-5-(trifluoromethyl)-1H-pyrazol-1-yl]acetic acid] | 2.05 |
| Cc1cc(C(F)(F)F)nn1CC(=O)N1CCC(c2nc(C(=O)O)cs2)CC1 [III-4, 2-(1-{[5-Methyl-3-(trifluoromethyl)-1H-pyrazol-1-yl]acetyl}piperidin-4-yl)-1,3-thiazole-4-carboxylic acid] | 1.82 |
| CC(C)(C)c1cc(C(F)(F)C(F)(F)F)n(CC(=O)O)n1 [V-3, [3-tert-Butyl-5-(pentafluoroethyl)-1H-pyrazol-1-yl]acetic acid] | 2.92 |

Same assay, conditions: reversed-phase C18 HPLC column; * LC-MS determination in the acidic range at pH 2.7, mobile phases 0.1% aqueous formic acid and acetonitrile (0.1% formic acid), linear gradient 10% to 95% acetonitrile; reversed-phase C 18 HPLC; read-out: log p

| SMILES | chromatographic logP |
| --- | --- |
| Cc1cc(C(F)(F)F)nn1CC(=O)N1CCC(c2nc(C(=O)OCc3ccccc3Br)cs2)CC1 [compound 820, 2-Bromobenzyl 2-(1-{[5-methyl-3-(trifluoromethyl)-1H-pyrazol-1-yl]acetyl}piperidin-4-yl)-1,3-thiazole-4-carboxylate] | 3.8 |
